Converted amounts (≈) assume the structure as drawn.
What was measured:
[1] = system: U937; test: Cytotoxicity, flow cytofluorimetry (Guava ViaCount / 7-AAD); assay type: cell-based; details: Homo sapiens, U-937; mean ± SEM, at least 3 independent experiments
Method: (§1) The cytotoxicity of the prepared compounds was studied using Jurkat, K562, U937, and HL-60 suspension tumor cells; conditionally normal Hek293 cells; and normal fibroblasts. The IC50 values were determined by flow cytofluorimetry with the Guava ViaCount reagent kit (Millipore, Bedford, MA, USA).
(§2) Cells (Jurkat, K562, U937, HL-60, HEK293, and normal fibroblasts) were purchased from HPA Culture Collections (Salisbury, UK) and cultured according to standard mammalian tissue culture protocols and the sterile technique. All cell lines used in the study were tested and shown to be free of mycoplasma and other […] contamination. HEK293 and fibroblast cell lines were cultured as monolayers and maintained in Dulbecco’s modified Eagle’s medium (DMEM, Gibco BRL, Waltham, MA, USA) supplemented with 10% fetal bovine serum and 1% penicillin-streptomycin solution at 37 °C in a humidified incubator under a 5% CO2 atmosphere.
(§3) Cells were maintained in RPMI 1640 (Jurkat, K562, U937, HL60) (Gibco, Waltham, MA, USA) supplemented with 4 mM glutamine, 10% FBS (Sigma, Burlington, MA, USA), and 100 units/ml penicillin–streptomycin (Sigma, Burlington, MA, USA). All types of cells were grown in an atmosphere of 5% CO2 at 37 °C. The cells were subcultured at 2–3-day intervals. Adherent cells (HEK293 and normal fibroblasts) were suspended using trypsin/EDTA and counted after they reached 80% confluency. Cells were then seeded in 24-well plates at 5 × 10^4 cells per well and incubated overnight. Jurkat, K562, U937, and HL60 cells were subcultured at 2-day intervals with a seeding density of 1 × 10^5 cells per 24-well plates in RPMI with 10% FBS.
(§4) Viability (live/dead) assessment was performed by staining cells with 7-AAD (7-Aminoactinomycin D) (Biolegend, Fell, Germany). After treatment, cells were harvested, washed 1–2 times with phosphate-buffered saline (PBS), and centrifuged at 400× g for 5 min. Cell pellets were resuspended in […] of flow cytometry staining buffer (PBS without Ca^2+ and Mg^2+, 2.5% FBS) and stained with 5 μL of 7-AAD staining solution for 15 min at room temperature in the dark. Samples were acquired on a NovoCyteTM 2000 FlowCytometry System (ACEA) equipped with a 488 nm argon laser. Detection of 7-AAD emission was collected through a 675/30 nm filter in FL4 channel.

[2] = system: Hek293; test: as above; assay type: cell-based; details: Homo sapiens, mean ± SEM, at least 3 independent experiments
Method: as §1, §2, §3, §4

[3] = system: K562; test: as above; assay type: cell-based; details: Homo sapiens, mean ± SEM, at least 3 independent experiments
Method: as §1, §2, §3, §4

[4] = system: normal fibroblasts; test: as above; assay type: cell-based; details: Fibroblast; mean ± SEM, at least 3 independent experiments; read-out: Fibrobl. (IC50)
Method: as §1, §2, §3, §4

[5] = system: Jurkat; test: as above; assay type: cell-based; details: Homo sapiens, mean ± SEM, at least 3 independent experiments
Method: as §1, §2, §3, §4

[6] = system: HL-60; test: as above; assay type: cell-based; details: Homo sapiens, mean ± SEM, at least 3 independent experiments
Method: as §1, §2, §3, §4

[7] = system: Jurkat cells; test: Cell cycle analysis (Guava Cell Cycle Reagent); assay type: cell-based; details: IC50 concentrations (8a 0.15 µM, 8b 0.16 µM, 8c 0.13 µM), 24 h
Method: Cell cycle analysis was carried out following the known procedure. Guava Cell Cycle Reagent (Millipore, Burlington, MA, USA) was used. Samples were analyzed on a NovoCyteTM 2000 FlowCytometry System (ACEA, San Diego, CA, USA).

[8] = system: Jurkat cells; test: Mitochondrial damage, MitoSense Red / Annexin V-CF488A / 7-AAD (FlowCellect MitoDamage Kit); assay type: cell-based; details: for percentage of Jurkat tumor cells with reduced Δψ: 4 h (Figure 4)
Excerpt: The changes in the mitochondrial membrane potential (ΔΨ) in Jurkat cells induced by treatment with compounds 8a, 8b, and 8c were detected using the MitoSense Red, a fluorescent dye, which is mainly accumulated in mitochondria and responds to changes in the membrane potential. The viable whole-body cells induce a high fluorescence level of MitoSense Red, whereas cells with dissipated mitochondrial membrane potential cause much lower fluorescence of MitoSense Red or no fluorescence. Annexin V and 7AAD are two dyes commonly used to detect apoptotic cells. […] Thus, using three different dyes, MitoSense Red, Annexin V (CF488A), and 7-AAD, we analyzed the dissipation of the mitochondrial membrane potential and the related apoptosis in Jurkat tumor cells in response to the action of synthesized macrodiolides (Figure 4).
Mitochondrial damage tests were carried out following the known procedure. Cytometric assay (Millipore’s FlowCellect™MitoDamage Kit, Merck, Burlington, MA, USA) that allowed multiparametric evaluation of three cell health markers: change in mitochondrial potential (early apoptosis and cellular stress), phosphatidylserine expression on the cell surface […], and membrane permeabilization (cell death), was used.

[9] = system: Jurkat cells; test: Induction of apoptosis, Annexin V / 7AAD flow cytometry; assay type: cell-based; details: 24 h; for apoptosis-inducing effect, dependence on dose: 0.1-0.3 µM
Method: We studied the new macrodiolides for the induction of apoptosis and for the effect on the cell cycle. For this purpose, we chose the Jurkat, K562, and U937 cell lines. Apoptosis was studied by flow cytofluorimetry using Annexin V and 7-aminoactinomycin D (7AAD) (Guava Nexin reagent (Millipore, Bedford, MA, USA)). After incubation, the cells were analyzed using a NovoCyte™ 2000 Flow Cytometry System (ACEA). Apoptotic cells are characterized by externalization of the phosphatidylserine (PS) phospholipid, which is normally located, in living cells, on the inner surface of the cell membrane. The phospholipid location on the outer membrane surface can be detected from early apoptosis up to complete cell degradation. […] The use of Annexin V in combination with 7AAD allows simultaneous discrimination between viable cells (V–/7AAD–), early apoptotic cells (V+/7AAD–), and late apoptotic or necrotic cells (V+/7AAD+).
Induction of apoptosis tests were carried out following the known procedure. Apoptosis was determined by flow cytometric analysis of Annexin V and 7-aminoactinomycin D staining. After treatment, cells during 24 h were harvested, washed 1–2 times with phosphate-buffered saline (PBS), and centrifuged at 400× g for 5 min. Cell pellets were resuspended in 200 μL of flow cytometry staining buffer (PBS without Ca^2+and Mg^2+, 2.5% FBS). Then, 200 μL of Guava Nexin reagent (Millipore, Bedford, MA, USA) were added to 5 × 10^5 cells in 200 μL, and the cells were incubated with the reagent for 20 min at room temperature in the dark. At the end of incubation, the cells were analyzed on a NovoCyteTM 2000 FlowCytometry System (ACEA, San Diego, CA, USA).

[10] = system: HT-29 human colon cancer cells; design: method as in PMID 12530851, PMID 16551088; details: HT-29 cell line; cited from earlier work

Compound | IC50 [1] | IC50 [2] | IC50 [3] | IC50 [4] | IC50 [5] | IC50 [6] | Freq G1 (percentage of cells in G0/G1 phase) [7] | percentage of Jurkat tumor cells with reduced Δψ ([8]; 0.15 µM) | apoptosis-inducing effect, dependence on dose [9] | IC50 [10] | Freq Sub-G1 (cells in the sub-G0-G1 range) [7] | action on mitochondria (reduction of mitochondrial potential) compared with staurosporine [8] | percentage of apoptotic cells (early apoptosis and late apoptosis) ([8]; 0.15 µM, 4 h) | An+,PI+ cells (late apoptosis) ([9]; 0.1 µM) | An+,PI+ cells (late apoptosis) ([9]; 0.3 µM) | PI+ cells (necrotic) ([9]; 0.3 µM)
O=C1OCCCC/C=C\CC/C=C\CCCCOC(=O)c2ccccc2OCc2ccccc2COc2ccccc21 [7a, (11Z,15Z)-7,8,9,10,13,14,17,18,19,20,28,33-dodecahydro-5H,22H-tribenzo[c,g,k][1,5,10,14]tetraoxacyclooctacosine-5,22-dione] | 560 ± 60 nM | 3860 ± 340 nM | 760 ± 80 nM | 7.12 ± 0.59 µM | 490 ± 40 nM | 940 ± 80 nM | – | – | – | – | – | – | – | – | – | –
O=C1OCCCCCC/C=C\CC/C=C\CCCCCCOC(=O)c2ccccc2OCc2ccc(cc2)COc2ccccc21 [8c, (16Z,20Z)-2,6,9,28-tetraoxa-1,7(1,2),4(1,4)-tribenzenacyclononacosaphane-16,20-diene-8,29-dione] | 270 ± 20 nM | 1210 ± 90 nM | 340 ± 30 nM | 3.19 ± 0.28 µM | 130 ± 10 nM | 190 ± 10 nM | 55.93% | 26.26% | dose dependent | – | – | – | – | – | – | –
O=C1OCCC/C=C\CC/C=C\CCCOC(=O)c2ccccc2OCc2ccc(cc2)COc2ccccc21 [6c, (13Z,17Z)-2,6,9,22-tetraoxa-1,7(1,2),4(1,4)-tribenzenacyclotricosaphane-13,17-diene-8,23-dione] | 460 ± 40 nM | 1760 ± 160 nM | 580 ± 50 nM | 4.22 ± 0.39 µM | 340 ± 30 nM | 400 ± 30 nM | – | – | – | – | – | – | – | – | – | –
Oc1cccc(C23C=C4CN(CCc5ccc(c(O)c5)-c5ccc(O)cc54)C2Cc2cccc(O)c23)c1 (centres unmarked) [Haouamine A] | – | – | – | – | – | – | – | – | – | 0.1 µg/mL (≈ 0.204 µM) | – | – | – | – | – | –
O=C1OCCC/C=C\CC/C=C\CCCOC(=O)c2ccccc2OCc2ccccc2COc2ccccc21 [6a, (10Z,14Z)-7,8,9,12,13,16,17,18,26,31-decahydro-5H,20H-tribenzo[c,g,k][1,5,10,14]tetraoxacyclohexacosine-5,20-dione] | 490 ± 40 nM | 1940 ± 170 nM | 610 ± 50 nM | 4.71 ± 0.42 µM | 390 ± 30 nM | 430 ± 30 nM | – | – | – | – | – | – | – | – | – | –
O=C1OCCCC/C=C\CC/C=C\CCCCOC(=O)c2ccccc2OCc2cccc(c2)COc2ccccc21 [7b, (14Z,18Z)-2,6,9,24-tetraoxa-1,7(1,2),4(1,3)-tribenzenacyclopentacosaphane-14,18-diene-8,25-dione] | 1170 ± 90 nM | 4210 ± 390 nM | 1490 ± 110 nM | 7.69 ± 0.72 µM | 940 ± 80 nM | 970 ± 90 nM | – | – | – | – | – | – | – | – | – | –
O=C1OCCCCCC/C=C\CC/C=C\CCCCCCOC(=O)c2ccccc2OCc2cccc(c2)COc2ccccc21 [8b, (16Z,20Z)-2,6,9,28-tetraoxa-1,7(1,2),4(1,3)-tribenzenacyclononacosaphane-16,20-diene-8,29-dione] | 310 ± 30 nM | 1680 ± 140 nM | 390 ± 40 nM | 3.48 ± 0.32 µM | 160 ± 10 nM | 240 ± 20 nM | 59.16% | 41.71% | dose dependent | – | 4.13% | comparable with the action of staurosporine | 58.15% | 64.36% | 58.0% | 26.49%
O=C1OCCCC/C=C\CC/C=C\CCCCOC(=O)c2ccccc2OCc2ccc(cc2)COc2ccccc21 [7c, (14Z,18Z)-2,6,9,24-tetraoxa-1,7(1,2),4(1,4)-tribenzenacyclopentacosaphane-14,18-diene-8,25-dione] | 390 ± 30 nM | 3470 ± 310 nM | 590 ± 40 nM | 6.55 ± 0.61 µM | 350 ± 30 nM | 890 ± 90 nM | – | – | – | – | – | – | – | – | – | –
O=C1OCCC/C=C\CC/C=C\CCCOC(=O)c2ccccc2OCc2cccc(c2)COc2ccccc21 [6b, (13Z,17Z)-2,6,9,22-tetraoxa-1,7(1,2),4(1,3)-tribenzenacyclotricosaphane-13,17-diene-8,23-dione] | 510 ± 50 nM | 2180 ± 210 nM | 640 ± 60 nM | 5.09 ± 0.47 µM | 480 ± 50 nM | 440 ± 40 nM | – | – | – | – | – | – | – | – | – | –
O=C1OCCCCCC/C=C\CC/C=C\CCCCCCOC(=O)c2ccccc2OCc2ccccc2COc2ccccc21 [8a, (13Z,17Z)-7,8,9,10,11,12,15,16,19,20,21,22,23,24,32,37-hexadecahydro-5H,26H-tribenzo[c,g,k][1,5,10,14]tetraoxacyclodotriacontine-5,26-dione] | 300 ± 20 nM | 1440 ± 110 nM | 370 ± 20 nM | 3.37 ± 0.29 µM | 150 ± 20 nM | 220 ± 20 nM | 63.04% | 19.36% | dose dependent | – | – | comparable with the action of staurosporine | – | – | – | –
